{"source": "paper PMC8790893", "about": "(Chemical Science, 2021)", "key": {"AR [1]": {"system": "AR", "conditions": "read-out: IC50 in AR competitive binding assay; cited from earlier work"}, "AR [2]": {"system": "AR", "conditions": "read-out: IC50 in AR transcriptional assay; cited from earlier work"}, "5-lipoxygenase": {"biological_target": "5-lipoxygenase", "conditions": "read-out: IC50, 5-lipoxygenase; cited from earlier work"}, "sigma 1 receptor": {"biological_target": "sigma 1 receptor", "conditions": "cited from earlier work"}, "RORγt-LBD (262-518)": {"biological_target": "T1, RORγt-LBD (262-518) (Homo sapiens, UniProt P51449)", "T1 sequence (P51449 262-518)": "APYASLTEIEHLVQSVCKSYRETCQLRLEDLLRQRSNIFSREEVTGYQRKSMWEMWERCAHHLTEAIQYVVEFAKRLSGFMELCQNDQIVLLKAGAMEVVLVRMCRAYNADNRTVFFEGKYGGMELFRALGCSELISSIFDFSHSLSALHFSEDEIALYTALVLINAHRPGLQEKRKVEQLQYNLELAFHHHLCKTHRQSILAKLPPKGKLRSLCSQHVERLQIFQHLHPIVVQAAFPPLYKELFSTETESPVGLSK", "assay_type": "biochemical"}, "RORγt-LBD [3]": {"biological_target": "T2, RORγt-LBD (Homo sapiens, UniProt P51449)", "T2 sequence (P51449 262-518)": "T1 sequence (P51449 262-518)", "test": "Intrinsic fluorescence-quenching based assay", "assay_type": "binding", "conditions": "RORγt-LBD 30 μM; compound 0-50 μM; excitation 280 nm"}, "RORγt-LBD [4]": {"biological_target": "T2, RORγt-LBD", "test": "Isothermal titration calorimetry", "assay_type": "binding"}, "RORγt-LBD-SRC2.2 [5]": {"biological_target": "T3, RORγt-LBD-SRC2.2 (Homo sapiens, UniProt P51449)", "T3 sequence (P51449 with tags, fused parts or gaps)": "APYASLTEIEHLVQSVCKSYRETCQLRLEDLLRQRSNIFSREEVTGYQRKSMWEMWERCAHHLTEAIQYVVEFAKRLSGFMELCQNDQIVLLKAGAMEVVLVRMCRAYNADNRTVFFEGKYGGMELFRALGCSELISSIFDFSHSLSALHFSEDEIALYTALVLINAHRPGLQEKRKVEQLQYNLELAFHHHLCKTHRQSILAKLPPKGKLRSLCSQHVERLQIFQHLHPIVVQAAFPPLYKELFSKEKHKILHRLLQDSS", "test": "Drug affinity responsive target stability", "assay_type": "binding", "conditions": "60 μM protein, 40 °C, 10 min, dose-dependent"}, "RORγt in HEK293T cells": {"biological_target": "T4, RORγt in HEK293T cells (Homo sapiens, UniProt P51449)", "T4 sequence (P51449 1-497 isoform P51449-2)": "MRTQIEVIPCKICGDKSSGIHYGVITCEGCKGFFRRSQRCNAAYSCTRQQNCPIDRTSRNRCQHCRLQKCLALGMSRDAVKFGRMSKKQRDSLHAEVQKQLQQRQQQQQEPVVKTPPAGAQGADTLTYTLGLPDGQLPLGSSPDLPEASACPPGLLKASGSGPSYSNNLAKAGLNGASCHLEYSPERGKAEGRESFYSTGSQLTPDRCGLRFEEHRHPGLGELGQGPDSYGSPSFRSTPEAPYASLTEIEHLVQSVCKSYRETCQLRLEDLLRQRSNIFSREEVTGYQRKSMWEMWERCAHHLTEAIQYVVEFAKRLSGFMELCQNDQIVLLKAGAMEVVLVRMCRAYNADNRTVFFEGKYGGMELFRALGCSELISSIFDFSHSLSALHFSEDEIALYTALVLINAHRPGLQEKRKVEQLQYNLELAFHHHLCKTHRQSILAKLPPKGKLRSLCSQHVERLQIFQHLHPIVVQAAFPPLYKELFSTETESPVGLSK", "test": "Cellular thermal shift assay", "assay_type": "cell-based", "conditions": "HEK293T cells exogenously expressing RORγt, 60 μM, 2 h"}, "[6]": {"system": "experimental autoimmune encephalomyelitis (EAE)", "test": "MOG35-55-induced EAE: clinical signs, disease onset, body weight", "assay_type": "in vivo, female C57BL/6 mice", "conditions": "EAE mice; for EAE induced body weight loss: 50 mg kg^−1 orally every day from day 12; for mean disease onset date: 50 mg kg^−1 orally every day from day 12, n = 8"}, "TH17 cells": {"system": "TH17 cells", "test": "Flow cytometry of spleen cells of EAE mice", "assay_type": "in vivo", "conditions": "CD4 and IL-17 dual-staining"}, "[7]": {"system": "blood–brain barrier (BBB)", "test": "In vivo imaging of brain inflammation", "conditions": "EAE mice, day 9 post-administration"}, "IL-17A": {"system": "IL-17A", "test": "ELISA of IL-17A in spinal cord and brain supernatant", "assay_type": "in vivo", "conditions": "EAE mice"}, "spinal cord white matter": {"system": "spinal cord white matter", "test": "Histochemical analysis of spinal cords", "assay_type": "in vivo", "conditions": "EAE mice, 50 mg kg^−1 orally, LFB and H&E staining"}, "human RORγt": {"biological_target": "T5, human RORγt (Homo sapiens, UniProt P51449)", "T5 sequence (P51449 97-516)": "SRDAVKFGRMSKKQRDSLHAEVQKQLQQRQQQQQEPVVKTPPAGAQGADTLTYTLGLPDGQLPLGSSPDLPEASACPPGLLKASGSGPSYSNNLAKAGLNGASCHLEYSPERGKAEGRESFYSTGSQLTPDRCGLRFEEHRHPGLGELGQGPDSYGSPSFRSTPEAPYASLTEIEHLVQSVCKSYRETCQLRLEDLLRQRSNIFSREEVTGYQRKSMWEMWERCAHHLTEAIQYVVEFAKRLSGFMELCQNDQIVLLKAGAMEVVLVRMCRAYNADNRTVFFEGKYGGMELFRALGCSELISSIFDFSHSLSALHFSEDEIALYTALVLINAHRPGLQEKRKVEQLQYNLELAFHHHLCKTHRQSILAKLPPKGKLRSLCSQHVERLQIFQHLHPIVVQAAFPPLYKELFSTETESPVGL", "test": "RORγt-GAL4 dual-luciferase reporter assay", "assay_type": "cell-based"}, "RORγt-LBD-SRC2.2 [8]": {"biological_target": "T3, RORγt-LBD-SRC2.2", "test": "Co-crystallization and X-ray structure determination", "conditions": "resolution 1.99 Å"}, "[9]": {"system": "DOCA-salt-induced organ damage", "conditions": "rats; by blocking the activation of TH17 cells; cited from earlier work"}, "prostate cancer": {"system": "prostate cancer", "conditions": "cited from earlier work"}}, "note": "Like-named read-outs stand apart in the source and are kept apart here."}
{"smiles": "C[C@]12CC[C@H](O)CC1=CC[C@@H]1[C@@H]2CC[C@]2(C)C(c3cccnc3)=CC[C@@H]12", "note": "[abiraterone, Abiraterone]", "values": [{"measurement": "IC50", "setting": "AR [1]", "result": 7.6, "unit": "µM"}, {"measurement": "IC50", "setting": "AR [2]", "result": 9.4, "unit": "µM"}]}
{"smiles": "Oc1cc(O)cc(/C=C/c2ccc(O)c(O)c2)c1", "note": "[piceatannol]", "values": [{"measurement": "IC50", "setting": "5-lipoxygenase", "result": 0.24, "unit": "µM"}]}
{"smiles": "CCN(CCO)CCCC(C)Nc1ccnc2cc(Cl)ccc12", "note": "(centres unmarked) [hydroxychloroquine]", "values": [{"measurement": "pKi, sigma 1 receptor", "setting": "sigma 1 receptor", "result": 6.9}]}
{"smiles": "CC1(C)CC[C@]2(C(=O)O)CC[C@]3(C)C(=CC[C@@H]4[C@@]5(C)CCC(=O)C(C)(C)[C@@H]5CC[C@]43C)[C@@H]2C1", "note": "[oleanonic acid, Oleanonic Acid]", "values": [{"measurement": "IC50", "setting": "RORγt-LBD (262-518)", "result": 0.28, "unit": "µM"}, {"measurement": "fluorescence quenching of RORγt-LBD", "setting": "RORγt-LBD [3]", "result": "dose-dependently induced fluorescence quenching"}, {"measurement": "Kd", "setting": "RORγt-LBD [4]", "result": 1.06, "unit": "µM"}, {"measurement": "proteolysis of RORγt-LBD-SRC2.2 by pronase E", "setting": "RORγt-LBD-SRC2.2 [5]", "result": "clearly decreased"}, {"measurement": "Tm values of RORγt (CETSA)", "setting": "RORγt in HEK293T cells", "result": "significantly increased"}, {"measurement": "EAE induced body weight loss", "setting": "[6]", "result": "significantly reversed"}, {"measurement": "mean disease onset date", "setting": "[6]", "result": "15.3 ± 0.2", "unit": "days"}, {"measurement": "frequency of pro-inflammatory TH17 cells in the spleen", "setting": "TH17 cells", "result": "reduced frequency"}, {"measurement": "EAE-induced BBB disruption (brain BSA-Cy5.5 accumulation)", "setting": "[7]", "result": "remitted the EAE-induced BBB disruption obviously"}, {"measurement": "IL-17A protein expression in brains and spinal cords", "setting": "IL-17A", "result": "effectively reduced"}, {"measurement": "immune cell infiltrations in white matter of spinal cords", "setting": "spinal cord white matter", "result": "reduced"}]}
{"smiles": "C[C@H]1[C@H](C)CC[C@]2(C(=O)O)CC[C@]3(C)C(=CC[C@@H]4[C@@]5(C)CCC(=O)C(C)(C)[C@@H]5CC[C@]43C)[C@H]12", "note": "[ursonic acid, Ursonic Acid]", "values": [{"measurement": "IC50", "setting": "human RORγt", "result": 0.1, "unit": "µM"}, {"measurement": "IC50", "setting": "RORγt-LBD (262-518)", "result": 0.01, "unit": "µM"}, {"measurement": "fluorescence quenching of RORγt-LBD", "setting": "RORγt-LBD [3]", "result": "dose-dependently induced fluorescence quenching"}, {"measurement": "Kd", "setting": "RORγt-LBD [4]", "result": 3.04, "unit": "µM"}, {"measurement": "proteolysis of RORγt-LBD-SRC2.2 by pronase E", "setting": "RORγt-LBD-SRC2.2 [5]", "result": "clearly decreased"}, {"measurement": "Tm values of RORγt (CETSA)", "setting": "RORγt in HEK293T cells", "result": "significantly increased"}, {"measurement": "binding site in the crystal structure (PDB code: 6J3N)", "setting": "RORγt-LBD-SRC2.2 [8]", "result": "buried in the canonical orthosteric ligand pocket"}, {"measurement": "EAE induced body weight loss", "setting": "[6]", "result": "significantly reversed"}, {"measurement": "mean disease onset date", "setting": "[6]", "result": "17.3 ± 0.5", "unit": "days"}, {"measurement": "frequency of pro-inflammatory TH17 cells in the spleen", "setting": "TH17 cells", "result": "reduced frequency"}, {"measurement": "EAE-induced BBB disruption (brain BSA-Cy5.5 accumulation)", "setting": "[7]", "result": "remitted the EAE-induced BBB disruption obviously"}, {"measurement": "IL-17A protein expression in brains and spinal cords", "setting": "IL-17A", "result": "effectively reduced"}, {"measurement": "immune cell infiltrations in white matter of spinal cords", "setting": "spinal cord white matter", "result": "reduced"}]}
{"smiles": "CC(=O)S[C@@H]1CC2=CC(=O)CC[C@]2(C)[C@H]2CC[C@@]3(C)[C@@H](CC[C@@]34CCC(=O)O4)[C@H]12", "note": "[Spironolactone]", "values": [{"measurement": "effect on DOCA-salt-induced organ damage", "setting": "[9]", "result": "decrease DOCA-salt-induced organ damage"}, {"measurement": "effect on the incidence of prostate cancer", "setting": "prostate cancer", "result": "reduce the incidence of prostate cancer"}]}
{"smiles": "Oc1ccc(/C=C/c2cc(O)cc(O)c2)cc1", "note": "[resveratrol]", "values": [{"measurement": "IC50", "setting": "5-lipoxygenase", "result": 4.9, "unit": "µM"}]}
{"smiles": "CCN(CC)CCCC(C)Nc1ccnc2cc(Cl)ccc12", "note": "(centres unmarked) [chloroquine]", "values": [{"measurement": "pKi, sigma 1 receptor", "setting": "sigma 1 receptor", "result": 7.1}]}
